Test results taken from ChEMBL document CHEMBL1131703, “Azaindole derivatives with high affinity for the dopamine D4 receptor: synthesis, ligand binding studies and comparison of molecular electrostatic potential maps” (Bioorg Med Chem Lett, 1999).

Key:
D(4) dopamine receptor = biological target: T1, D(4) dopamine receptor (Homo sapiens, UniProt P21917); assay: Binding affinity evaluated for the displacement of [3H]spiperone against human dopamine receptor D4
T1 sequence (P21917 whole entry): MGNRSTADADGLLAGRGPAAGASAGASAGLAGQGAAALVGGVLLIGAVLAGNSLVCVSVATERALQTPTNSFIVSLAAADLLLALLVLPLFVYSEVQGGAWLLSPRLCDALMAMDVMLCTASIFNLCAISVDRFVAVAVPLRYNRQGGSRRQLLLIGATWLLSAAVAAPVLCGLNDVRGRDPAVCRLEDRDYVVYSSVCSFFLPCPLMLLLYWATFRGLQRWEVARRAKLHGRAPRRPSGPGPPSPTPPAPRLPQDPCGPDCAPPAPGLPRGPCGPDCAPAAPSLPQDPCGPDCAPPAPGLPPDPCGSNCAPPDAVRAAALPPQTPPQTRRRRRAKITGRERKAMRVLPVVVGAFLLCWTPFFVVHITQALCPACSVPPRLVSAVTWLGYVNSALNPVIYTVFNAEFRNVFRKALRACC

D(3) dopamine receptor = D(3) dopamine receptor (Homo sapiens, UniProt P35462); assay: Binding affinity evaluated for the displacement of [3H]-spiperone against human dopamine receptor D3
Sequence of D(3) dopamine receptor (P35462 whole entry): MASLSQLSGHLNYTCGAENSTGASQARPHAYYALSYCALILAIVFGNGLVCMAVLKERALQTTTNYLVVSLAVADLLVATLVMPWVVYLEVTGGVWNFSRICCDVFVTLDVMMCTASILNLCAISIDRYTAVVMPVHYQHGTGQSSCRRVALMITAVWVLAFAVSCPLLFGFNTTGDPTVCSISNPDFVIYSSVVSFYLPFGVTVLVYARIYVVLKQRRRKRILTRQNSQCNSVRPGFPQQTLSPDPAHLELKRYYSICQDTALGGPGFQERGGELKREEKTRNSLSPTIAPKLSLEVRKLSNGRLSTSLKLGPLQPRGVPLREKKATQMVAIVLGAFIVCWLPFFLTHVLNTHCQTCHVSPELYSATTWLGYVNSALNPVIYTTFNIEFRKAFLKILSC

D(2) dopamine receptor = D(2) dopamine receptor (Bos taurus, UniProt P20288); assay: Binding affinity was evaluated for the displacement of [3H]spiperone against bovine Dopamine receptor D2
Sequence of D(2) dopamine receptor (P20288 whole entry): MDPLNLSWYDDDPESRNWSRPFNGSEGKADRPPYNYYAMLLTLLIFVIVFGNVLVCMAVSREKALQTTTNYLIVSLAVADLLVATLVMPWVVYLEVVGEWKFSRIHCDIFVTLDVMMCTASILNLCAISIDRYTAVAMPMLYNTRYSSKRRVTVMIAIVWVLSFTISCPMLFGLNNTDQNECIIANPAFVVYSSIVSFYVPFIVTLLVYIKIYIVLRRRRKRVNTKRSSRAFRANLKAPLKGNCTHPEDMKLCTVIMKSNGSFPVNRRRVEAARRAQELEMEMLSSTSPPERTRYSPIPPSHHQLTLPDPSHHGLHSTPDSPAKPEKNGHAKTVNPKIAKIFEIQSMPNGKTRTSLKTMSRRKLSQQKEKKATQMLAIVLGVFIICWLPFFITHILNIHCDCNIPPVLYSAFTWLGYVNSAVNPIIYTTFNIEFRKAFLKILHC

D(1A) dopamine receptor = D(1A) dopamine receptor (Bos taurus, UniProt Q95136); assay: Binding affinity was evaluated for the displacement of [3H]-SCH- 23390 against bovine Dopamine receptor D1
Sequence of D(1A) dopamine receptor (Q95136 whole entry): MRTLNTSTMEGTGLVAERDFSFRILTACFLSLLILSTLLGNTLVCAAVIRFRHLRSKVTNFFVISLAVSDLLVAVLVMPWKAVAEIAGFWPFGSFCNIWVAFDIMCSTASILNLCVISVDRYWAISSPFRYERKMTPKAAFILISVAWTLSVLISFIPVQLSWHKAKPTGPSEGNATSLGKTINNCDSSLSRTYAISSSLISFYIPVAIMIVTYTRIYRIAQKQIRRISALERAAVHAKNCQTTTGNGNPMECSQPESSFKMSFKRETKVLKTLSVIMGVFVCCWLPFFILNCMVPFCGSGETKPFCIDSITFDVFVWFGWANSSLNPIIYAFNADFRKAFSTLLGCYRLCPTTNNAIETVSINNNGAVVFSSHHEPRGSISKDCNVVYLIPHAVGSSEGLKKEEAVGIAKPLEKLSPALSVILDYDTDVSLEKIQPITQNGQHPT

| Structure (SMILES) | Ki (D(4) dopamine receptor) [µM] | Ki (D(3) dopamine receptor) [µM] | Ki (D(2) dopamine receptor) [µM] | Ki (D(1A) dopamine receptor) [µM] |
| --- | --- | --- | --- | --- |
| O=C(c1cnn2ccccc12)N1CCN(c2ccc(Cl)cc2)CC1 | 23 | 61 | 30 | > 100 |
| Ic1ccc(N2CCN(Cc3cnn4ccccc34)CC2)cc1 | 0.003 | 6.7 | 1.4 | 17 |
